# Earlier results in patent US5346895A, “Chromans and thiochromans with heteroarylethynyl substituents at the 7-position having retinoid-like biological activity” (Allergan, Inc., priority 1993, dated 1994).
# Tested on: ornithine decarboxylase (ODC), TPA induced ODC activity
# Details: result in words, retinoic acid, background knowledge
smiles,measurement,value
CC1=C(/C=C/C(C)=C/C=C/C(C)=C/C(=O)O)C(C)(C)CCC1 [Retinoic acid],inhibition of induction of ODC activity by TPA,inhibits this induction of ODC activity by TPA
